This test relates to STZ-induced diabetic mice. The test is described as follows: STZ-induced type 1 diabetes mouse model with insulin or MDC rescue. In kind it is in vivo. Here is the method: STZ-induced diabetes is a chemical modeling method for diabetes. Its full name is streptozotocin, which is a broad-spectrum antibiotic isolated from achromatic streptomycin. It can selectively damage islet 13 cells in a short period of time, causing 13 cell necrosis, resulting in varying degrees of blood insulin drop and blood sugar rise, resulting in insulin-dependent type 1 diabetes mellitus. […] Modelling criteria are non-fasting blood glucose values above 13.8 mM (250 mg/dl). The modeling steps are as follows: (4) According to the body weight, mice in the model group were injected intraperitoneally with 2% STZ-citric acid solution (160 mg/kg), and the mice in the control group were intraperitoneally injected with the corresponding volume of citrate buffer. 2 h after the injection, the mice were fed back. […] Specific steps are as follows: (3) According to the body weight, the insulin rescue group was subcutaneously injected with diluted insulin (1 U/kg/day), once a day at the same time for 7 consecutive days, and the control group was given a corresponding volume of normal saline. […] Body weight and random blood glucose were measured at different time points after injection. […] (1) Sample preparation: Store the freshly obtained mouse blood in an EDTA anticoagulation tube, stand at room temperature for 10 min, centrifuge at 1000 g for 15 min, and collect the supernatant, namely plasma. If it cannot be detected immediately, it should be subpackaged and stored at −80° C. to avoid repeated freezing. If precipitation occurs during storage, it should be fully thawed at room temperature before use, and centrifuged again.

We go through one substance from patent US20220349876A1, “USE OF DKK1 INHIBITOR IN PREVENTION AND/OR TREATMENT OF TUMOR CACHEXIA AND DISEASES ASSOCIATED WITH DIABETES” (SHANGHAI DONGTSU BIOSCIENCES CO., LTD., priority 2019, published 2022).

“Also recorded” adds a separate entry of the source.

In the case of insulin, where the note is “STZ diabetic mice”, the “blood 8-OHdG (ELISA)” value is given as “greatly attenuated”; the blood glucose concentration entry was “reduces STZ-induced blood glucose elevation; also recorded: decreased from the first day of treatment and remained at a low level”; the “body weight loss of diabetic mice” value was “promoted the gradual recovery of the weight loss; also recorded: suppressed”. The “blood Dkk1 (ELISA)” value (STZ diabetic mice, daily insulin) is reported as “brought high blood Dkk1 concentrations back to basal levels; also recorded: at the basal level”. Besides, where the note is “STZ diabetic mice, heart”, the “cardiac p53, p21, Bax/Bcl-2 and Cleaved Caspase-3” value is “greatly attenuated”; the “cardiac γH2AX” value is “decrease in γH2AX signaling”; the “damage to myocardial structure (HE staining)” value was “prevented”; the “translocation of cardiac β-arrestin1/2 in diabetic hearts” value is “able to reverse this translocation”. Further, the “LRP5/6 on the cardiac membrane” value (STZ diabetic mice, heart, Western blot) is “started to be up-regulated”. For the same substance, the “translocation of insulin receptors on the cardiac membrane or in the plasma” value (substance alone (FIG. 19G)) was “does not induce translocation of insulin receptors”.
